The text below walks through data of patent US20050203176A1, “Carbamates as HIV anti-viral agents” (WYETH, priority 2004, published 2005).

In assay [1] the target is T1, HIV Reverse transcriptase (RT) p66/p51, RDDP activity (Human immunodeficiency virus type 1 group M subtype B, UniProt P04585).
T1 construct: […]; purchased Worthington
As to the kind of experiment: RNA dependent DNA polymerase (RDDP) activity of HIV RT, 33P TTP incorporation with polyrA-oligodT12-18. Type of assay: biochemical.

Assay [2] has as its target T2, HIV reverse transcriptase (RNase H activity) (Human immunodeficiency virus type 1 group M subtype B, UniProt P04585).
T2 construct: HIV reverse transcriptase has an RNase H domain at the C-terminus of its p66 subunit
As to the kind of experiment: RNase H / HIV reverse transcriptase inhibition (fluorescent probe-target hybrid assay). Type of assay: biochemical. As to conditions: inhibition of HIV reverse transcriptase / RNase H, Table I. The text has this: Preferably, the RNase H/HIV reverse transcriptase modulatory activity of the compounds of the present invention may be determined by the methods described in copending U.S. provisional patent Application No. 60/436,125, filed Dec. 19, 2003 and PCT Application Ser. No. WO 2004/059012, filed Dec. 22, 2003, published Jul. 15, 2004, entitled ASSAY FOR RNase ACTIVITY of Olsen et al., incorporated herein by reference in their entirety. Specifically, the modulatory activity of a carbamate derivative of the present invention may be determined by hybridizing a target nucleic acid to a fluorescently labeled oligonucleotide probe complementary to the target nucleic acid and containing a fluorophor at one terminus and a quenching group at the other terminus to obtain a probe-target hybrid, wherein (i) the unhybridized probe adopts a conformation that places the fluorophor and quencher in such proximity that the quencher quenches the fluorescent signal of the fluorophor, and (ii) the formation of the probe-target hybrid causes sufficient separation of the fluorophor and quencher to reduce quenching of the fluorescent signal of the fluorophor. Next, a first and second sample containing the probe-target hybrid are prepared. The probe-target hybrid of the first sample is then contacted with an RNase H enzyme (such as HIV reverse transcriptase) in an amount sufficient to selectively cleave the target nucleic acid and thereby release the intact probe. The probe-target hybrid of the second sample is also contacted with the RNase H enzyme in an amount sufficient to selectively cleave the target nucleic acid and thereby release the intact probe in the presence of a candidate carbamate derivative of the present invention. The release of the probe in each sample may then be detected by measuring the […] in the fluorescent signal of the fluorophor as compared to the signal of the probe-target hybrid. A comparison of the rate of the decrease in the fluorescent signal of the fluorophor in the two samples is made to determine whether there is a difference in the rate of the decrease in the two samples. […] This method is also useful to identify carbamate derivatives of the present invention, wherein candidate carbamate derivatives are screened for their ability to modulate RNase/HIV reverse transcriptase activity.

Another assay relates to HIV-1 infection. To be noted: cited from earlier work.

Like-named read-outs stand apart in the source and are kept apart here. Some results are limits rather than exact numbers.

In the case of `COc1ccc(C)cc1NC(=O)CSC(=S)N(Cc1ccccc1)Cc1ccccc1` [Example 9], the IC50 in assay [1] is more than 80 µM; in assay [2] it was 46.2 µM.
On the same counts, the results for `COc1ccc(C)cc1NC(=O)CSC(=S)N(Cc1ccccc1)c1ccccc1` [Example 5, 2-[(2-methoxy-5-methylphenyl)amino]-2-oxoethyl benzyl(phenyl)dithiocarbamate] are more than 80 µM and 8.3 µM.
On the same counts, the results for `O=C(CSC(=S)N(Cc1ccccc1)Cc1ccccc1)Nc1ccc(Cl)cc1Cl` [Example 4, 2-[(2,4-dichlorophenyl)amino]-2-oxoethyl dibenzyldithiocarbamate] are more than 160 µM and 5.8 µM.
In assay [1], `Cc1cn([C@H]2C[C@H](N=[N+]=[N-])[C@@H](CO)O2)c(=O)[nH]c1=O` [AZT, zidovudine, reference compound] showed a half-inhibitory concentration (IC50) of less than 0.2 µM.
`N#Cc1cccc(NC(=O)CSC(=S)N(Cc2ccccc2)Cc2ccccc2)c1` [Example 3, 2-[(3-cyanophenyl)amino]-2-oxoethyl dibenzyldithiocarbamate]: the values for the half-maximal inhibitory concentration (IC50) in assay [1] and in assay [2] were more than 80 µM and 4.7 µM, respectively.
With `Cc1ccc(NC(=O)CSC(=S)N(Cc2ccccc2)Cc2ccccc2)c(C)c1` [Example 1, 2-[(2,4-dimethylphenyl)amino]-2-oxoethyl dibenzyldithiocarbamate], the results for the half-inhibitory concentration (IC50) in assay [1] and in assay [2] were 30 µM and 3.1 µM, respectively.
Turning to “2-[(2,4-dimethylphenyl)amino]-2-oxoethyl dibenzyl(phenyl)dithiocarbamate [Example 8]”, the half-maximal inhibitory concentration (IC50) in assay [1] (inhibition of polymerase (RDDP) activity of HIV reverse transcriptase, Table II, read-out: IC50) is more than 80 µM; in assay [2], 41.5 µM.
Turning to `O=C(CSC(=S)N(Cc1ccccc1)Cc1ccccc1)Nc1ccc(Cl)c(Cl)c1Cl` [Example 2, 2-oxo-2-[(2,3,4-trichlorophenyl)amino]ethyl dibenzyldithiocarbamate], the concentration for half-maximal inhibition (IC50) in assay [1] is more than 80 µM; in assay [2] it was 3.3 µM.
The like results for `N#Cc1cccc(NC(=O)CSC(=S)N(Cc2ccccc2)c2ccccc2)c1` [Example 6, 2-[(3-cyanophenyl)amino]-2-oxoethyl benzyl(phenyl)dithiocarbamate] were, in that order, more than 80 µM and 11.4 µM.
The like results for `O=C(CSC(=S)N(Cc1ccccc1)c1ccccc1)Nc1ccc(Cl)c(Cl)c1Cl` [Example 7, 2-oxo-2-[(2,3,4,-trichlorophenyl)amino]ethyl benzylphenyl dithiocarbamate] were, in that order, more than 80 µM and 26.6 µM.
With `CCN(CC)C(=S)S` [diethyldicarbamate], the “patients who died during eighteen-month follow up” value with HIV-1 infection (3 placebo patients had died from AIDS) is “none”. Moreover, the “patients with AIDS at the end of the study” value in the assay on HIV-1 infection (HIV-1 patients Walter Reed stages 2-4, 24 weeks treatment, 6 of the placebo patients had AIDS) is “no patient”. Moreover, in the assay with HIV-1 infection (HIV-1 patients, group that received the drug vs placebo), the disease progression entry is recorded as “Significantly delayed disease progression”.

Usually IC50 stands for the concentration needed to halve the response being measured.
